According to PubChem BioAssay AID248 (DTP/NCI, 2004):
Values joined by “and” are separate entries in the source; they are usually repeats but may differ in a detail not shown here. Equal entries are not always repeated. Toxic doses and inconclusive results are not listed.

Tested on: L1210 leukemia ip in BDF1 mice, survival T/C
Assay: NCI In Vivo Anticancer Drug Screen. Data for tumor model L1210 Leukemia (intraperitoneal) in B6D2F1 (BDF1) mice
Conditions: endpoint: mean survival time, higher = longer survival
Summary of the method: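 Value reflects the ratio of survival in compound-treated mice to survival in vehicle-treated controls, with both groups carrying the same transplanted tumor.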

[1] = dose: 100.0 mg/kg/injection, schedule: Q04DX003 (ip), vehicle: saline with Tween-80
[2] = dose: 200.0 mg/kg/injection, schedule: Q04DX003 (ip), vehicle: saline with Tween-80
[3] = dose: 400.0 mg/kg/injection, schedule: Q04DX003 (ip), vehicle: saline with Tween-80
[4] = dose: 100.0 mg/kg/injection, schedule: Q04DX002 (ip), vehicle: saline with Tween-80
[5] = dose: 200.0 mg/kg/injection, schedule: Q04DX002 (ip), vehicle: saline with Tween-80
[6] = dose: 100.0 mg/kg/injection, schedule: Q01DX009 (ip), vehicle: saline with Tween-80
[7] = dose: 200.0 mg/kg/injection, schedule: Q01DX009 (ip), vehicle: saline with Tween-80
[8] = dose: 100.0 mg/kg/injection, schedule: Q01DX001 (ip), vehicle: Klucel (hydroxypropylcellulose) (HPC)
[9] = dose: 200.0 mg/kg/injection, schedule: Q01DX001 (ip), vehicle: Klucel (hydroxypropylcellulose) (HPC)
[10] = dose: 400.0 mg/kg/injection, schedule: Q01DX001 (ip), vehicle: Klucel (hydroxypropylcellulose) (HPC)
[11] = dose: 400.0 mg/kg/injection, schedule: Q01DX001 (ip), vehicle: saline

## CN=C(NCc1ccccc1)c1ccc(NC(=O)c2ccc(C(=O)Nc3ccc(C(=NC)NCc4ccccc4)cc3)cc2)cc1
dose: 1.9 mg/kg/injection, schedule: Q01DX Z (ip), vehicle: methylcellulose (MC)
  T/C: 97 % of control
dose: 3.8 mg/kg/injection, schedule: Q01DX Z (ip), vehicle: methylcellulose (MC)
  T/C: 108 % of control
dose: 7.5 mg/kg/injection, schedule: Q01DX Z (ip), vehicle: methylcellulose (MC)
  T/C: 93 % of control

## O=C(O)c1cc(-c2ccc(Cl)cc2)nc2c(-c3ccccc3)cccc12
[1]
  T/C: 95 % of control
[2]
  T/C: 95 % of control
[3]
  T/C: 90 % of control

## CC(=O)Nc1ccc(/C=N/NC(N)=S)cc1
dose: 100.0 mg/kg/injection, schedule: Q04DX013 (ip), vehicle: carboxymethylcellulose (CMC)
  T/C: 94 % of control
dose: 200.0 mg/kg/injection, schedule: Q04DX013 (ip), vehicle: carboxymethylcellulose (CMC)
  T/C: 98 % of control

## CCOP(=O)(OCC)OC(=C(Cl)Cl)C(Cl)(Cl)Cl
[4]
  T/C: 115 % of control
[5]
  T/C: 102 % of control

## CC(/C=C/c1ccc(O)cc1)=N\O
[6]
  T/C: 89 % of control
[7]
  T/C: 100 % of control

## Cc1ccc(C(=O)C=Nc2ccc(Br)cc2)cc1
[8]
  T/C: 104 % of control
[9]
  T/C: 95 % of control
[10]
  T/C: 112 % of control

## O=C(COc1ccc(Cl)c(Cl)c1)NCc1ccc[n+](Cc2ccc(S(=O)(=O)F)cc2Cl)c1
dose: 25.0 mg/kg/injection, schedule: Q04DX003 (ip), vehicle: saline with Tween-80
  T/C: 109 % of control
dose: 50.0 mg/kg/injection, schedule: Q04DX003 (ip), vehicle: saline with Tween-80
  T/C: 101 % of control
[1]
  T/C: 86 % of control

## CCC1CSC(=S)N1 (stereo not drawn)
dose: 3.12 mg/kg/injection, schedule: Q01DX009 (ip), vehicle: acetone
  T/C: 92 % of control
dose: 3.12 mg/kg/injection, schedule: Q04DX003 (ip), vehicle: saline
  T/C: 103 % of control
dose: 6.25 mg/kg/injection, schedule: Q01DX009 (ip), vehicle: acetone
  T/C: 102 % of control
dose: 6.25 mg/kg/injection, schedule: Q04DX003 (ip), vehicle: saline
  T/C: 101 % of control
dose: 12.5 mg/kg/injection, schedule: Q04DX003 (ip), vehicle: saline
  T/C: 102 % of control

## NCC(O)C(F)(F)F (stereo not drawn)
dose: 100.0 mg/kg/injection, schedule: Q01DX001 (ip), vehicle: carboxymethylcellulose (CMC)
  T/C: 109 % of control
dose: 200.0 mg/kg/injection, schedule: Q01DX001 (ip), vehicle: carboxymethylcellulose (CMC)
  T/C: 97 % of control
dose: 400.0 mg/kg/injection, schedule: Q01DX001 (ip), vehicle: carboxymethylcellulose (CMC)
  T/C: 118 % of control

## CCOc1ccccc1NC(=S)NC(=O)CCc1ccccc1
[6]
  T/C: 102 % of control and 104 % of control
[4]
  T/C: 104 % of control
[1]
  T/C: 105 % of control
[7]
  T/C: 93 % of control and 108 % of control
[5]
  T/C: 98 % of control
[2]
  T/C: 97 % of control
dose: 400.0 mg/kg/injection, schedule: Q01DX009 (ip), vehicle: saline with Tween-80
  T/C: 97 % of control and 89 % of control
dose: 400.0 mg/kg/injection, schedule: Q04DX002 (ip), vehicle: saline with Tween-80
  T/C: 91 % of control
[3]
  T/C: 89 % of control

## CCS(=O)(=O)N(CC(=O)O)Cc1ccccc1
dose: 50.0 mg/kg/injection, schedule: Q01DX009 (ip), vehicle: saline
  T/C: 100 % of control
dose: 100.0 mg/kg/injection, schedule: Q01DX009 (ip), vehicle: saline
  T/C: 104 % of control
dose: 100.0 mg/kg/injection, schedule: Q04DX003 (ip), vehicle: saline
  T/C: 100 % of control
dose: 200.0 mg/kg/injection, schedule: Q01DX009 (ip), vehicle: saline
  T/C: 93 % of control
dose: 200.0 mg/kg/injection, schedule: Q04DX003 (ip), vehicle: saline
  T/C: 96 % of control
dose: 300.0 mg/kg/injection, schedule: Q01DX009 (ip), vehicle: saline
  T/C: 95 % of control
dose: 400.0 mg/kg/injection, schedule: Q04DX003 (ip), vehicle: saline
  T/C: 94 % of control

## Cc1ccc(COC(=O)c2cccnc2)cc1
[8]
  T/C: 103 % of control
[9]
  T/C: 100 % of control
[10]
  T/C: 103 % of control

## COc1ccc(CC(N)C(=O)OC(C)C)cc1N(CCCl)CCCl (stereo not drawn)
dose: 1.5 mg/kg/injection, schedule: Q01DX001 (ip), vehicle: saline
  T/C: 108 % of control
dose: 3.0 mg/kg/injection, schedule: Q01DX001 (ip), vehicle: saline
  T/C: 113 % of control
dose: 6.0 mg/kg/injection, schedule: Q01DX001 (ip), vehicle: saline
  T/C: 97 % of control

## CCOCCOCCOC(=O)COCC(=O)OCCOCCOCC
dose: 100.0 mg/kg/injection, schedule: Q01DX001 (ip), vehicle: saline
  T/C: 96 % of control
dose: 200.0 mg/kg/injection, schedule: Q01DX001 (ip), vehicle: saline
  T/C: 113 % of control
[11]
  T/C: 111 % of control

## COC(CCCl)c1ccccc1 (stereo not drawn)
[6]
  T/C: 101 % of control
[1]
  T/C: 100 % of control
[7]
  T/C: 100 % of control
[2]
  T/C: 96 % of control
[3]
  T/C: 91 % of control

## CCNc1nncs1
dose: 7.0 mg/kg/injection, schedule: Q03HX032 (ip), vehicle: saline
  T/C: 97 % of control
dose: 11.0 mg/kg/injection, schedule: Q03HX032 (ip), vehicle: saline
  T/C: 104 % of control
dose: 16.0 mg/kg/injection, schedule: Q03HX032 (ip), vehicle: saline
  T/C: 105 % of control
dose: 17.25 mg/kg/injection, schedule: Q01DX Z (ip), vehicle: carboxymethylcellulose (CMC)
  T/C: 102 % of control
dose: 24.0 mg/kg/injection, schedule: Q03HX032 (ip), vehicle: saline
  T/C: 101 % of control
dose: 27.0 mg/kg/injection, schedule: Q01DX015 (ip), vehicle: saline
  T/C: 106 % of control
dose: 27.6 mg/kg/injection, schedule: Q01DX Z (ip), vehicle: carboxymethylcellulose (CMC)
  T/C: 100 % of control and 114 % of control
dose: 34.5 mg/kg/injection, schedule: Q01DX Z (ip), vehicle: carboxymethylcellulose (CMC)
  T/C: 98 % of control and 101 % of control
dose: 36.0 mg/kg/injection, schedule: Q03HX032 (ip), vehicle: saline
  T/C: 118 % of control
dose: 40.0 mg/kg/injection, schedule: Q01DX015 (ip), vehicle: saline
  T/C: 103 % of control
dose: 46.0 mg/kg/injection, schedule: Q01DX Z (ip), vehicle: carboxymethylcellulose (CMC)
  T/C: 100 % of control and 107 % of control
dose: 60.0 mg/kg/injection, schedule: Q01DX015 (ip), vehicle: saline
  T/C: 108 % of control
dose: 64.0 mg/kg/injection, schedule: Q02DX010 (ip), vehicle: carboxymethylcellulose (CMC)
  T/C: 117 % of control
dose: 75.0 mg/kg/injection, schedule: Q01DX Z (ip), vehicle: saline
  T/C: 170 % of control
dose: 96.0 mg/kg/injection, schedule: Q02DX010 (ip), vehicle: carboxymethylcellulose (CMC)
  T/C: 123 % of control
dose: 103.5 mg/kg/injection, schedule: Q01DX Z (ip), vehicle: carboxymethylcellulose (CMC)
  T/C: 123 % of control
dose: 138.0 mg/kg/injection, schedule: Q01DX Z (ip), vehicle: carboxymethylcellulose (CMC)
  T/C: 112 % of control
dose: 150.0 mg/kg/injection, schedule: Q01DX Z (ip), vehicle: saline
  T/C: 176 % of control
dose: 150.0 mg/kg/injection, schedule: Q01DX Z (oral), vehicle: saline
  T/C: 115 % of control
dose: 265.0 mg/kg/injection, schedule: Q01DX001 (ip), vehicle: saline
  T/C: 104 % of control
dose: 270.0 mg/kg/injection, schedule: Q01DX001 (ip), vehicle: saline
  T/C: 106 % of control
dose: 300.0 mg/kg/injection, schedule: Q01DX Z (oral), vehicle: saline
  T/C: 98 % of control
dose: 337.0 mg/kg/injection, schedule: Q02DX010 (ip), vehicle: carboxymethylcellulose (CMC)
  T/C: 120 % of control
[11]
  T/C: 109 % of control
dose: 562.0 mg/kg/injection, schedule: Q02DX010 (ip), vehicle: carboxymethylcellulose (CMC)
  T/C: 112 % of control and 76 % of control
dose: 562.5 mg/kg/injection, schedule: Q02DX010 (ip), vehicle: carboxymethylcellulose (CMC)
  T/C: 84 % of control and 88 % of control
dose: 600.0 mg/kg/injection, schedule: Q01DX001 (ip), vehicle: saline
  T/C: 117 % of control
dose: 600.0 mg/kg/injection, schedule: Q01DX Z (oral), vehicle: saline
  T/C: 87 % of control

## O=C(CCCC(=O)N/N=C/c1ccc(OCc2ccccc2)cc1)N/N=C\c1ccc(OCc2ccccc2)cc1
dose: 50.0 mg/kg/injection, schedule: Q01DX001 (ip), vehicle: other
  T/C: 102 % of control
dose: 100.0 mg/kg/injection, schedule: Q01DX001 (ip), vehicle: other
  T/C: 93 % of control
dose: 200.0 mg/kg/injection, schedule: Q01DX001 (ip), vehicle: other
  T/C: 93 % of control
dose: 400.0 mg/kg/injection, schedule: Q01DX001 (ip), vehicle: other
  T/C: 91 % of control
